Reference: ChEMBL document CHEMBL1828619, “Identification of pyridazin-3-one derivatives as potent, selective histamine H₃ receptor inverse agonists with robust wake activity” (Bioorg Med Chem Lett, 2011)
Values belong to the compound of their own block, whether it stands above or below them. Active and inactive are the calls of the source. The calls are words filed in the database; no cut-off is given here.

How the values were obtained:
[1] = target: T1, Histamine H3 receptor (Homo sapiens, UniProt Q9Y5N1); assay: Displacement of [3H]NAMH from human cloned histamine 3 receptor expressed in CHO cells; type: cell-based
[2] = target: Histamine H3 receptor (Rattus norvegicus, UniProt Q9QYN8); assay: Displacement of [3H]NAMH from rat cloned histamine 3 receptor expressed in CHO cells; type: cell-based
[3] = Ratio of drug level in brain to plasma in rat at 5 mg/kg, po; type: ADME, organism-based; design: dose 5 mg/kg, route oral; details: read-out: BPR
[4] = tested on: Rattus norvegicus; assay: Induction of wake promoting activity in EEG/EMG Sprague-Dawley rat model assessed as increase in waking time at 10 mg/kg, ip after 4 hrs; type: functional; details: route intraperitoneal
[5] = target: T2, Cytochrome P450 1A2 (Homo sapiens, UniProt P05177); assay: Inhibition of CYP1A2; type: ADME
T2 sequence (P05177 whole entry): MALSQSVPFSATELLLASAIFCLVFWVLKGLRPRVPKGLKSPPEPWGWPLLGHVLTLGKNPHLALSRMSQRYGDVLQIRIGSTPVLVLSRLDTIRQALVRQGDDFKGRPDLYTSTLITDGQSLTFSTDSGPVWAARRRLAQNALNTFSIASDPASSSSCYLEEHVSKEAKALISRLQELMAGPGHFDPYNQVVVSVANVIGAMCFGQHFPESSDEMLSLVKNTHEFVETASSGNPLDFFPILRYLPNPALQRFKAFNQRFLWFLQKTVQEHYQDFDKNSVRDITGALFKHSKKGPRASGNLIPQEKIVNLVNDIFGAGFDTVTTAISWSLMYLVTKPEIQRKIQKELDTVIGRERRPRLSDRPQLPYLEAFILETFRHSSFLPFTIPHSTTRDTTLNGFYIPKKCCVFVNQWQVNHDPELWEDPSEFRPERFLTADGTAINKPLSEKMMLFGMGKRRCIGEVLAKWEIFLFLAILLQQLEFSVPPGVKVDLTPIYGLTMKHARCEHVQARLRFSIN

[6] = Clearance in rat at 1 mg/kg, iv after 6 hrs; type: ADME, organism-based; design: dose 1 mg/kg, route intravenous; details: in vivo
[7] = target: Cytochrome P450 2C19 (Homo sapiens, UniProt P33261); assay: Inhibition of CYP2C19; type: ADME
[8] = target: T1, Histamine H3 receptor; assay: Antagonist activity at human histamine 3 receptor by [35S]GTPgammaS binding assay; type: functional
[9] = target: Cytochrome P450 3A4 (Homo sapiens, UniProt P08684); assay: Inhibition of CYP3A4; type: ADME
[10] = Volume of distribution in rat at 1 mg/kg, iv after 6 hrs; type: ADME, organism-based; design: dose 1 mg/kg, route intravenous; details: in vivo
[11] = Half life in rat at 5 mg/kg, po after 6 hrs; type: ADME, organism-based; design: dose 5 mg/kg, route oral; details: in vivo
[12] = AUC (0 to 6 hrs) in rat at 5 mg/kg, po; type: ADME, organism-based; design: time < 6 hr, dose 5 mg/kg, route oral; details: plasma
[13] = tested on: Rattus norvegicus; assay: Induction of wake promoting activity in EEG/EMG Sprague-Dawley rat model assessed as increase in waking time at 10 mg/kg, ip after 7 hrs; type: functional; details: route intraperitoneal
[14] = tested on: Rattus norvegicus; assay: Inhibition of (R)-alpha-methyl histamine-induced dipsogenia in ip dosed rat; type: functional
[15] = Half life in human liver microsomes; type: ADME, Microsome
[16] = Half life in dog liver microsomes; type: ADME, Canis lupus familiaris, Microsome
[17] = Oral bioavailability in rat at 5 mg/kg after 6 hrs; type: ADME, organism-based; details: in vivo
[18] = Half life in mouse liver microsomes; type: ADME, Microsome
[19] = target: Cytochrome P450 2C9 (Homo sapiens, UniProt P11712); assay: Inhibition of CYP2C9; type: ADME
[20] = target: Cytochrome P450 2D6 (Homo sapiens, UniProt P10635); assay: Inhibition of CYP2D6; type: ADME
[21] = target: T1, Histamine H3 receptor; assay: Inverse activity against human histamine 3 receptor by [35S]GTPgammaS binding assay; type: functional
[22] = Half life in rat at 1 mg/kg, iv after 6 hrs; type: ADME, organism-based; design: dose 1 mg/kg, route intravenous; details: in vivo
[23] = Half life in rat liver microsomes; type: ADME, Microsome
[24] = Half life in monkey liver microsomes; type: ADME, Macaca mulatta, Microsome; details: rhesus monkey
[25] = target: Sodium-dependent noradrenaline transporter (Homo sapiens) (UniProt P23975); assay: Inhibition of NET at 10 uM
[26] = Solubility of the compound at pH 7.4; type: physicochemical; details: buffer
[27] = tested on: Rattus norvegicus; assay: Induction of wake promoting activity in EEG/EMG Sprague-Dawley rat model assessed as increase in waking time at 3 mg/kg, ip after 4 hrs; type: functional; details: route intraperitoneal
[28] = Cmax in rat at 5 mg/kg, po after 6 hrs; type: ADME, organism-based; design: dose 5 mg/kg, route oral; details: in vivo
[29] = Solubility of the compound at pH 2; type: physicochemical; details: buffer
[30] = Oral bioavailability in rat; type: ADME, organism-based; details: in vivo
[31] = Ratio of drug level in brain to plasma in iv dosed rat; type: ADME, organism-based; details: read-out: BPR
[32] = Half life in iv dosed rat; type: ADME, organism-based; details: in vivo
[33] = Clearance in iv dosed rat; type: ADME, organism-based; details: in vivo
[34] = Volume of distribution in iv dosed rat; type: ADME, organism-based; details: in vivo
[35] = target: Voltage-gated inwardly rectifying potassium channel KCNH2 (Homo sapiens, UniProt Q12809); assay: Inhibition of human ERG by patch express assay
[36] = target: Histamine H1 receptor (Homo sapiens) (UniProt P35367); assay: Inhibition of human histamine H1 receptor at 10 uM
[37] = tested on: Rattus norvegicus; assay: Induction of wake promoting activity in EEG/EMG Sprague-Dawley rat model assessed as increase in waking time at 30 mg/kg, ip after 4 hrs; type: functional; details: route intraperitoneal
[38] = target: Histamine H2 receptor (Homo sapiens) (UniProt P25021); assay: Inhibition of human histamine H2 receptor at 10 uM
[39] = tested on: Rattus norvegicus; assay: Induction of wake promoting activity in ip dosed EEG/EMG Sprague-Dawley rat model assessed as increase in waking time after 4 hrs; type: functional, organism-based
[40] = target: Histamine H4 receptor (Homo sapiens) (UniProt Q9H3N8); assay: Inhibition of human histamine H4 receptor at 10 uM

Sequence of Cytochrome P450 3A4 (P08684 whole entry): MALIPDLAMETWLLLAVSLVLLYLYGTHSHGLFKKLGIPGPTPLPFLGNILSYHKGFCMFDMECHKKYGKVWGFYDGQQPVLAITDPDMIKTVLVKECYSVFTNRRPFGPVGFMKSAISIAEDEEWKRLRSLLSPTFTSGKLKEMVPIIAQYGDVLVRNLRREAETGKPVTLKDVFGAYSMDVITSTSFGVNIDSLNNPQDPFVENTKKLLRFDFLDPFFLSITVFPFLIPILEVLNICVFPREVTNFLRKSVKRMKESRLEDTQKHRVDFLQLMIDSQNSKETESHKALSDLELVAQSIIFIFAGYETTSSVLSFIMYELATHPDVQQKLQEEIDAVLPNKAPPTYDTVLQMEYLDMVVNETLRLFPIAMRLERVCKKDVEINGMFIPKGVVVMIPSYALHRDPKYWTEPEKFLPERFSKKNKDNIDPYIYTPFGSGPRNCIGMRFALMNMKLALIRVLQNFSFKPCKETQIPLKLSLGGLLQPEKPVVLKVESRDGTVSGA
Sequence of Cytochrome P450 2D6 (P10635 whole entry): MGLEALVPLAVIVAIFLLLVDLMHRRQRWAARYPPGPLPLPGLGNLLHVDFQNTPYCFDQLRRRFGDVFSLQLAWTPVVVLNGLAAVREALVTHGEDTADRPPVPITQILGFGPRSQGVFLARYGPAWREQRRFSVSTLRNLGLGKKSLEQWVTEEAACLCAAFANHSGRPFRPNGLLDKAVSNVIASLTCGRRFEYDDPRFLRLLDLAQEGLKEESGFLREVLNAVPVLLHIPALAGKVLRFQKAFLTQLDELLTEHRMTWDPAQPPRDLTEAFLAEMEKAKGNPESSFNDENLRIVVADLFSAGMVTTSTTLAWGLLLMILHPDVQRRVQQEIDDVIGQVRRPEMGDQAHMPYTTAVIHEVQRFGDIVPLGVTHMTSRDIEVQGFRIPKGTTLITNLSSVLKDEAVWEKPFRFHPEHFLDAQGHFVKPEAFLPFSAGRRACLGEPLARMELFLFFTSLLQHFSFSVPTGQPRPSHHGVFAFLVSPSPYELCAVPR
Sequence of Cytochrome P450 2C19 (P33261 whole entry): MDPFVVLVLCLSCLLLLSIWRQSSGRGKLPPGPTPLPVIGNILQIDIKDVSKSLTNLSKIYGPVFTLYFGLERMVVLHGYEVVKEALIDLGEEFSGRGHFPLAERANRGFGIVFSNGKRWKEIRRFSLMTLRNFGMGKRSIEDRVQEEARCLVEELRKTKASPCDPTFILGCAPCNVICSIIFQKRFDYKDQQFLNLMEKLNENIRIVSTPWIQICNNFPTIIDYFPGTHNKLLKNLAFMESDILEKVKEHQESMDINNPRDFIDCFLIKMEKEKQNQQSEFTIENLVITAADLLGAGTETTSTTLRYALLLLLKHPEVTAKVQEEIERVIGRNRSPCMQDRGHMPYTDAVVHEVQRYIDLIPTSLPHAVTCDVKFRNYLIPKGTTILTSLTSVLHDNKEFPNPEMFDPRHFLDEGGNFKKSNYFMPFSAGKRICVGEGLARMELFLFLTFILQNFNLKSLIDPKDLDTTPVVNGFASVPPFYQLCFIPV
T1 sequence (Q9Y5N1 whole entry): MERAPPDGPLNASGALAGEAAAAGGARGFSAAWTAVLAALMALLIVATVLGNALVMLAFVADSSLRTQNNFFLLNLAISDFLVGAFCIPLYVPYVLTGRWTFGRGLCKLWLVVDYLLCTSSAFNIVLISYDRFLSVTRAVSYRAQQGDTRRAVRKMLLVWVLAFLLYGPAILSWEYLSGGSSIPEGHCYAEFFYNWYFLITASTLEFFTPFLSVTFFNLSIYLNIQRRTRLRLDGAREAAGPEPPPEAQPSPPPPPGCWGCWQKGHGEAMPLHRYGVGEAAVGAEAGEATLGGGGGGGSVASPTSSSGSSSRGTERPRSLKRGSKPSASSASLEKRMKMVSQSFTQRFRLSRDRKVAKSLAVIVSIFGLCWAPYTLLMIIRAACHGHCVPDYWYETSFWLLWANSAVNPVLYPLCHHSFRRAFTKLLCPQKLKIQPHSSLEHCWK
Sequence of Histamine H3 receptor (Rattus norvegicus, UniProt Q9QYN8) (Q9QYN8 whole entry): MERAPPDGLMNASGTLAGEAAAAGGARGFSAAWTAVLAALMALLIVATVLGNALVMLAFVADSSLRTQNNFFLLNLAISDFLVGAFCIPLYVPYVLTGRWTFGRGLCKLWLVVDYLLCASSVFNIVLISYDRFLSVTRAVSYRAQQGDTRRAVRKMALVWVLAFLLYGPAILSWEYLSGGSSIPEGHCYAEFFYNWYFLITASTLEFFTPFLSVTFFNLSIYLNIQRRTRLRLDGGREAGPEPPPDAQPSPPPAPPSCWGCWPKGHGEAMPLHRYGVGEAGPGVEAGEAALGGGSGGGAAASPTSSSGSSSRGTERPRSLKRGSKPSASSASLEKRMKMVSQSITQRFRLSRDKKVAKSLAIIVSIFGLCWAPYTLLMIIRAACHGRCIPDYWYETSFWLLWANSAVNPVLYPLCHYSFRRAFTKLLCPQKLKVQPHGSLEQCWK
Sequence of Cytochrome P450 2C9 (P11712 whole entry): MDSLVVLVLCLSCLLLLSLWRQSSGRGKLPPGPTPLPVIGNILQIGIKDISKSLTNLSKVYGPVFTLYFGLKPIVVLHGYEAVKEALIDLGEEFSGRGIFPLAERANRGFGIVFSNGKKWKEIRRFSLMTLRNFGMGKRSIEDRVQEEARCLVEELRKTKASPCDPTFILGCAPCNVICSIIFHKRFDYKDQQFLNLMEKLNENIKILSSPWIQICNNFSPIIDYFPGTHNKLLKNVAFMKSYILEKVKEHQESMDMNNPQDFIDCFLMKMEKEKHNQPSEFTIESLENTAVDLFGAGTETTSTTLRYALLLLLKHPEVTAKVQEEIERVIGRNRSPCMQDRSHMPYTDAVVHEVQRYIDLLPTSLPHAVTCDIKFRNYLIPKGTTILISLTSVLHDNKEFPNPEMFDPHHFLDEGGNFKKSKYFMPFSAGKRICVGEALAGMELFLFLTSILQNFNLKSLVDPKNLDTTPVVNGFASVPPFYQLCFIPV
Sequence of Sodium-dependent noradrenaline transporter (Homo sapiens) (P23975 whole entry): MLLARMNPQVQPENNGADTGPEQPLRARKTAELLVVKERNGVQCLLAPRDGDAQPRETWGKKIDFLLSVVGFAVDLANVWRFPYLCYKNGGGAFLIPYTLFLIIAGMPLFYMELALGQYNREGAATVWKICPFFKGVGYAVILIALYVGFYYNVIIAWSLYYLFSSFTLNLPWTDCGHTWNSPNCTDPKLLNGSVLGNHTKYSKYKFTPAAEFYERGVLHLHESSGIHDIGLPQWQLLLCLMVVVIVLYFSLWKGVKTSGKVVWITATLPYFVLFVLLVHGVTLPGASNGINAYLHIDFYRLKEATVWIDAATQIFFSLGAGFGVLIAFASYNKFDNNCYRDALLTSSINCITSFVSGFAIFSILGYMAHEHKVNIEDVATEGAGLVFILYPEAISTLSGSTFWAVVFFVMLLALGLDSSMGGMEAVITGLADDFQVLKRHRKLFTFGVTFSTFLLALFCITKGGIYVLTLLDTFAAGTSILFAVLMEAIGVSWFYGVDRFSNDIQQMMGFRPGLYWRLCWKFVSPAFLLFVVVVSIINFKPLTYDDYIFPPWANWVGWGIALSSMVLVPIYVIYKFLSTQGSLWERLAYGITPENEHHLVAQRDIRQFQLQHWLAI
Sequence of Histamine H2 receptor (Homo sapiens) (P25021 whole entry): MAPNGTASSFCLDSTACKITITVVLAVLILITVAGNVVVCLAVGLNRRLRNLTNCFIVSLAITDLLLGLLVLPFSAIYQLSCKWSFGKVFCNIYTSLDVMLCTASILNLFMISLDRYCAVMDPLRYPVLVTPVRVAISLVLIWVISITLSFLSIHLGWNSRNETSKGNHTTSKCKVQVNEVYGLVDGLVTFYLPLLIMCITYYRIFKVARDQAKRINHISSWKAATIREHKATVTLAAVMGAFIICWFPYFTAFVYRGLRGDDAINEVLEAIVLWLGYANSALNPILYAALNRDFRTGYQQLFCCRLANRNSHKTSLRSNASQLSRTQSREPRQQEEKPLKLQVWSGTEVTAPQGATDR
Sequence of Voltage-gated inwardly rectifying potassium channel KCNH2 (Q12809 whole entry): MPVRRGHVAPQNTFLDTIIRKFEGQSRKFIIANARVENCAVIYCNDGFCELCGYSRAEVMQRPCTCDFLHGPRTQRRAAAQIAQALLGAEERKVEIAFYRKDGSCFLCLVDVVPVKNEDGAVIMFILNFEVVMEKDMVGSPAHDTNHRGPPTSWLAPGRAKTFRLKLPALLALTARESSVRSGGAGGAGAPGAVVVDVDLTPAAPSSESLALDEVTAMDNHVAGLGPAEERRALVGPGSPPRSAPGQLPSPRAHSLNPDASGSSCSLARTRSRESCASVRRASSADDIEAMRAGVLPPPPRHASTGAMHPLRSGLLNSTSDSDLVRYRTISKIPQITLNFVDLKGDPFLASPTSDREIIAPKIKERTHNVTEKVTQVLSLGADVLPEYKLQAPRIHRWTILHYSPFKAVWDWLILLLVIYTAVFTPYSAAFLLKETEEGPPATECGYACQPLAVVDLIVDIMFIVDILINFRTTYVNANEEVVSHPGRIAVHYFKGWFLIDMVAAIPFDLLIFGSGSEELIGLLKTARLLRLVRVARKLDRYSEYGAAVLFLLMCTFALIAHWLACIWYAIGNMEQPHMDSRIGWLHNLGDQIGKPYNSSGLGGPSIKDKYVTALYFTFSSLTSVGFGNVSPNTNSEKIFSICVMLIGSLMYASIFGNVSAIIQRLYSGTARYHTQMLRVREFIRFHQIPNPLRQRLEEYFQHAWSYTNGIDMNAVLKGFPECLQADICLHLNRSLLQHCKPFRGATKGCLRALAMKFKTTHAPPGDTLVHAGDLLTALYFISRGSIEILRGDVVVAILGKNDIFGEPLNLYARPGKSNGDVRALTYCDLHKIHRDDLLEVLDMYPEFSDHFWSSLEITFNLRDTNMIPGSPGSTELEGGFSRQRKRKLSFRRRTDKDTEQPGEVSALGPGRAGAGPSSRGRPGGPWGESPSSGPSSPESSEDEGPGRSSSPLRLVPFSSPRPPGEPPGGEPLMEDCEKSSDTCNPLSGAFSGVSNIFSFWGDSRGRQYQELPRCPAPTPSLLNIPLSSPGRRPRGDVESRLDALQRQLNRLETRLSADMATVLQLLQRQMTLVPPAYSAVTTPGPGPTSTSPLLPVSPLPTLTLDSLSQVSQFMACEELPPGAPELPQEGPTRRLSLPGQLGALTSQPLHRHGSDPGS

SMILES: C[C@@H]1CCCN1CCCOc1ccc(-c2ccc(=O)[nH]n2)c(F)c1
Ki [1]: 16 nM
Ki [2]: 69 nM

SMILES: COc1cc(OCCCN2CCC[C@H]2C)ccc1-c1ccc(=O)[nH]n1
Ki [1]: 152 nM
Ki [2]: 229 nM

SMILES: C[C@@H]1CCCN1CCCOc1ccc(-c2ccc(=O)n(C)n2)cc1Cl
Ki [1]: 4.4 nM
Ki [2]: 14 nM

SMILES: C[C@@H]1CCCN1CCCOc1ccc(-c2n[nH]c(=O)cc2-c2ccccn2)cc1
bioavailability [30]: < 10%
Ki [1]: 12 nM
Kp [31]: < 1
Ki [2]: 70 nM

SMILES: C[C@@H]1CCCN1CCCOc1ccc(-c2ccc(=O)n(C)n2)cc1F
inhibition [36]: < 30%
Kp [3]: 3.4
Time [4]: 157 min
Time [37]: 184 min
IC50 [5]: > 30000 nM
clearance [6]: 38 mL/min/kg
IC50 [7]: > 30000 nM
EC50 [8]: 1.3 nM
IC50 [9]: > 30000 nM
Vd [10]: 4.5 L/kg
half-life [11]: 96 min
AUC(0-t) at 6 h [12]: 936 ng·h/mL
Ki [1]: 5.8 nM
ED50 [14]: 0.13 mg/kg
inhibition [14]: Dose-dependent effect
half-life [15]: > 40 min
half-life [16]: > 40 min
bioavailability [17]: 42%
half-life [18]: > 40 min
IC50 [19]: > 30000 nM
IC50 [20]: > 30000 nM
Activity [21]: Active
half-life [22]: 72 min
inhibition [38]: < 30%
Ki [2]: 27 nM
half-life [23]: > 40 min
half-life [24]: > 40 min
inhibition [25]: > 70%
Activity [39]: Dose-dependent effect
solubility [26]: > 250 µg/mL
inhibition [40]: < 30%
Cmax [28]: 284 ng/mL
solubility [29]: > 250 µg/mL

SMILES: Cc1cc(=O)[nH]nc1-c1ccc(OCCCN2CCC[C@H]2C)cc1
Ki [1]: 2.9 nM
Ki [2]: 12 nM

SMILES: C[C@@H](COc1ccc(-c2ccc(=O)n(C)n2)cc1)CN1CCC[C@H]1C
Ki [1]: 15 nM
Ki [2]: 52 nM

SMILES: C[C@@H]1CCCN1CCCOc1ccc(-c2ccc(=O)[nH]n2)cc1C#N
Ki [1]: 38 nM
Ki [2]: 111 nM

Further lines, with some results ahead:

Ki [1]: 10 nM
Ki [2]: 22 nM
SMILES: C[C@@H]1CCCN1CCCOc1ccc(-c2ccc(=O)n(-c3ccccn3)n2)cc1

Ki [1]: 3.4 nM
Ki [2]: 11 nM
SMILES: C[C@@H]1CCCN1CCCOc1ccc(-c2ccc(=O)n(CCF)n2)cc1

Ki [1]: 35 nM
Ki [2]: 70 nM
SMILES: C[C@@H]1CCCN1CCCOc1ccc(-c2ccc(=O)[nH]n2)cn1

Ki [1]: 11 nM
Ki [2]: 41 nM
SMILES: C[C@@H]1CCCN1CCCOc1c(F)cc(-c2ccc(=O)n(C)n2)cc1F

Kp [3]: 2.5
IC50 [5]: > 30000 nM
clearance [6]: 37 mL/min/kg
IC50 [7]: > 30000 nM
EC50 [8]: 2.1 nM
IC50 [9]: > 30000 nM
Vd [10]: 2.5 L/kg
half-life [11]: 258 min
AUC(0-t) at 6 h [12]: 892 ng·h/mL
Ki [1]: 2.4 nM
half-life [15]: > 40 min
half-life [16]: > 40 min
bioavailability [17]: 38%
half-life [18]: > 40 min
IC50 [19]: > 30000 nM
IC50 [20]: > 30000 nM
Activity [21]: Active
half-life [22]: 48 min
Ki [2]: 4.6 nM
half-life [23]: > 40 min
half-life [24]: > 40 min
inhibition [25]: 19%
solubility [26]: > 250 µg/mL
Cmax [28]: 146 ng/mL
solubility [29]: > 250 µg/mL
SMILES: C[C@H](COc1ccc(-c2ccc(=O)n(C)n2)cc1)CN1CCC[C@H]1C
Time [4]: 231 min
Time [13]: 196 min
ED50 [14]: 0.02 mg/kg
inhibition [14]: Dose-dependent effect
Time [27]: 166 min

Ki [1]: 7.1 nM
Ki [2]: 40 nM
SMILES: C[C@@H]1CCCN1CCCOc1c(F)cc(-c2ccc(=O)[nH]n2)cc1F

Ki [1]: 3.4 nM
Ki [2]: 8.7 nM
SMILES: Cc1cc(-c2ccc(OCCCN3CCC[C@H]3C)cc2)n[nH]c1=O

Kp [3]: 3.5
half-life [11]: 138 min
AUC(0-t) at 6 h [12]: 538 ng·h/mL
SMILES: C[C@@H]1CCCN1CCCOc1ccc(-c2ccc(=O)n(C)n2)cc1

IC50 [5]: > 30000 nM
IC50 [7]: > 30000 nM
IC50 [9]: > 30000 nM
bioavailability [30]: 56%
Ki [1]: 1.4 nM
half-life [15]: > 40 min
Kp [31]: 0.5
half-life [16]: > 40 min
half-life [32]: 90 min
half-life [18]: > 40 min
IC50 [19]: > 30000 nM
IC50 [20]: > 30000 nM
clearance [33]: 29 mL/min/kg
Ki [2]: 7.9 nM
half-life [23]: > 40 min
half-life [24]: > 40 min
Vd [34]: 3.9 L/kg
SMILES: C[C@@H]1CCCN1CCCOc1ccc(-c2ccc(=O)n(-c3ncccn3)n2)cc1
IC50 [35]: > 10000 nM

Ki [1]: 5.7 nM
Ki [2]: 11 nM
SMILES: C[C@@H]1CCCN1CCCOc1ccc(-c2ccc(=O)n(CC(F)(F)F)n2)cc1

Ki [1]: 3 nM
Ki [2]: 9.5 nM
SMILES: C[C@@H]1CCCN1CCCOc1ccc(-c2ccc(=O)n(CCO)n2)cc1

bioavailability [30]: < 10%
Ki [1]: 3.1 nM
Kp [31]: < 1
Ki [2]: 10 nM
SMILES: C[C@@H]1CCCN1CCCOc1ccc(-c2cc(-c3ccccn3)c(=O)[nH]n2)cc1
